Laboratory results reported in ChEMBL document CHEMBL3227948, “Preparation and antidiabetic activity of some sulfonylurea derivatives of 3,5-disubstituted pyrazoles” (1979).

Columns and labels:
Type in all cases: functional
Mus musculus [1] = experiment: Hypoglycemic activity in alloxan-induced diabetic albino mouse assessed as decrease in blood glucose level at 1 mmol/kg, po administered 6 days after alloxan injection measured after 1 to 3 hrs by automated glucose oxidase method relative to control
Mus musculus [2] = experiment: Hypoglycemic activity in alloxan-induced diabetic albino mouse assessed as decrease in blood glucose level at 0.4 mmol/kg, po administered 6 days after alloxan injection measured after 2 to 4 hrs by automated glucose oxidase method relative to control
Mus musculus [3] = experiment: Hypoglycemic activity in alloxan-induced diabetic albino mouse assessed as decrease in blood glucose level at 1 mmol/kg, po administered 6 days after alloxan injection measured after 2 to 4 hrs by automated glucose oxidase method relative to control

Compound: Cc1cc(C)n(-c2ccc(S(=O)(=O)N3CCC(=O)N(Cc4ccccc4)C3=S)cc2)n1
- inhibition in vivo at 1000 µmol/kg (Mus musculus [1]): 18%

Compound: CCNC(=O)NS(=O)(=O)c1ccc(-n2nc(C)cc2C)cc1
- inhibition in vivo at 400 µmol/kg (Mus musculus [2]): < 1%

Compound: CCCNC(=O)NS(=O)(=O)c1ccc(-n2nc(C)cc2C)cc1
- inhibition in vivo at 400 µmol/kg (Mus musculus [2]): < 1%

Compound: CCCCNC(=O)NS(=O)(=O)c1ccc(-n2nc(C)cc2C)cc1
- inhibition in vivo at 400 µmol/kg (Mus musculus [2]): 2%

Compound: Cc1cc(C)n(-c2ccc(S(=O)(=O)NC(=O)NC3CCCCC3)cc2)n1
- inhibition in vivo at 400 µmol/kg (Mus musculus [2]): 10%

Compound: Cc1cc(C)n(-c2ccc(S(=O)(=O)NC(=O)NCc3ccccc3)cc2)n1
- inhibition in vivo at 400 µmol/kg (Mus musculus [2]): < 1%

Compound: Cc1cc(C)n(-c2ccc(S(=O)(=O)NC(=O)NNC(=N)N)cc2)n1
- inhibition in vivo at 400 µmol/kg (Mus musculus [2]): 3%

Compound: CCNC(=O)NS(=O)(=O)c1ccc(-n2nc(C(=O)O)cc2C)cc1
- inhibition in vivo at 400 µmol/kg (Mus musculus [2]): 0%

Compound: CCCNC(=O)NS(=O)(=O)c1ccc(-n2nc(C(=O)O)cc2C)cc1
- inhibition in vivo at 400 µmol/kg (Mus musculus [2]): 1%

Compound: CCCCNC(=O)NS(=O)(=O)c1ccc(-n2nc(C(=O)O)cc2C)cc1
- inhibition in vivo at 400 µmol/kg (Mus musculus [2]): 2%

Compound: Cc1cc(C(=O)O)nn1-c1ccc(S(=O)(=O)NC(=O)NC2CCCCC2)cc1
- inhibition in vivo at 400 µmol/kg (Mus musculus [2]): 1%

Compound: Cc1cc(C(=O)O)nn1-c1ccc(S(=O)(=O)NC(=O)NCc2ccccc2)cc1
- inhibition in vivo at 400 µmol/kg (Mus musculus [2]): 0%

Compound: CCNC(=S)NS(=O)(=O)c1ccc(-n2nc(C)cc2C)cc1
- inhibition in vivo at 400 µmol/kg (Mus musculus [2]): 0%

Compound: C=CCNC(=S)NS(=O)(=O)c1ccc(-n2nc(C)cc2C)cc1
- inhibition in vivo at 400 µmol/kg (Mus musculus [2]): -1%

Compound: CCCNC(=S)NS(=O)(=O)c1ccc(-n2nc(C)cc2C)cc1
- inhibition in vivo at 400 µmol/kg (Mus musculus [2]): < 1%

Compound: CCCCNC(=S)NS(=O)(=O)c1ccc(-n2nc(C)cc2C)cc1
- inhibition in vivo at 400 µmol/kg (Mus musculus [2]): 1%

Compound: Cc1cc(C)n(-c2ccc(S(=O)(=O)NC(=S)NC3CCCCC3)cc2)n1
- inhibition in vivo at 400 µmol/kg (Mus musculus [2]): < 2%

Compound: Cc1cc(C)n(-c2ccc(S(=O)(=O)NC(=S)NCc3ccccc3)cc2)n1
- inhibition in vivo at 400 µmol/kg (Mus musculus [2]): 0%

Compound: Cc1cc(C)n(-c2ccc(S(=O)(=O)NC(=S)Nc3ccccc3)cc2)n1
- inhibition in vivo at 400 µmol/kg (Mus musculus [2]): -3%

Compound: CCNC(=S)NS(=O)(=O)c1ccc(-n2nc(C(=O)O)cc2C)cc1
- inhibition in vivo at 400 µmol/kg (Mus musculus [2]): -2%

Compound: C=CCNC(=S)NS(=O)(=O)c1ccc(-n2nc(C(=O)O)cc2C)cc1
- inhibition in vivo at 400 µmol/kg (Mus musculus [2]): -6%

Compound: CCCNC(=S)NS(=O)(=O)c1ccc(-n2nc(C(=O)O)cc2C)cc1
- inhibition in vivo at 400 µmol/kg (Mus musculus [2]): < 1%

Compound: CCCCNC(=S)NS(=O)(=O)c1ccc(-n2nc(C(=O)O)cc2C)cc1
- inhibition in vivo at 400 µmol/kg (Mus musculus [2]): < 1%

Compound: Cc1cc(C(=O)O)nn1-c1ccc(S(=O)(=O)NC(=S)NC2CCCCC2)cc1
- inhibition in vivo at 400 µmol/kg (Mus musculus [2]): 1%

Compound: Cc1cc(C(=O)O)nn1-c1ccc(S(=O)(=O)NC(=S)NCc2ccccc2)cc1
- inhibition in vivo at 400 µmol/kg (Mus musculus [2]): < 2%

Compound: Cc1cc(C(=O)O)nn1-c1ccc(S(=O)(=O)NC(=S)Nc2ccccc2)cc1
- inhibition in vivo at 400 µmol/kg (Mus musculus [2]): 0%

Compound: CCN1C(=O)CN(S(=O)(=O)c2ccc(-n3nc(C)cc3C)cc2)C1=S
- inhibition in vivo at 1000 µmol/kg (Mus musculus [3]): < 1%

Compound: CCCN1C(=O)CN(S(=O)(=O)c2ccc(-n3nc(C)cc3C)cc2)C1=S
- inhibition in vivo at 1000 µmol/kg (Mus musculus [3]): < 1%

Compound: CCCCN1C(=O)CN(S(=O)(=O)c2ccc(-n3nc(C)cc3C)cc2)C1=S
- inhibition in vivo at 1000 µmol/kg (Mus musculus [3]): 1%

Compound: Cc1cc(C)n(-c2ccc(S(=O)(=O)N3CC(=O)N(C4CCCCC4)C3=S)cc2)n1
- inhibition in vivo at 1000 µmol/kg (Mus musculus [3]): 2%

Compound: Cc1cc(C)n(-c2ccc(S(=O)(=O)N3CC(=O)N(Cc4ccccc4)C3=S)cc2)n1
- inhibition in vivo at 1000 µmol/kg (Mus musculus [3]): 1%

Compound: Cc1cc(C)n(-c2ccc(S(=O)(=O)N3CC(=O)N(c4ccccc4)C3=S)cc2)n1
- inhibition in vivo at 1000 µmol/kg (Mus musculus [3]): 8%

Compound: CCN1C(=O)CN(S(=O)(=O)c2ccc(-n3nc(C(=O)O)cc3C)cc2)C1=S
- inhibition in vivo at 1000 µmol/kg (Mus musculus [3]): < 1%

Compound: C=CCN1C(=O)CN(S(=O)(=O)c2ccc(-n3nc(C(=O)O)cc3C)cc2)C1=S
- inhibition in vivo at 1000 µmol/kg (Mus musculus [3]): < 1%

Compound: CCCN1C(=O)CN(S(=O)(=O)c2ccc(-n3nc(C(=O)O)cc3C)cc2)C1=S
- inhibition in vivo at 1000 µmol/kg (Mus musculus [3]): 1%

Compound: CCCCN1C(=O)CN(S(=O)(=O)c2ccc(-n3nc(C(=O)O)cc3C)cc2)C1=S
- inhibition in vivo at 1000 µmol/kg (Mus musculus [3]): 1%

Compound: Cc1cc(C(=O)O)nn1-c1ccc(S(=O)(=O)N2CC(=O)N(C3CCCCC3)C2=S)cc1
- inhibition in vivo at 1000 µmol/kg (Mus musculus [3]): 1%

Compound: Cc1cc(C(=O)O)nn1-c1ccc(S(=O)(=O)N2CC(=O)N(Cc3ccccc3)C2=S)cc1
- inhibition in vivo at 1000 µmol/kg (Mus musculus [3]): < 1%

Compound: CCN1C(=O)CCN(S(=O)(=O)c2ccc(-n3nc(C)cc3C)cc2)C1=S
- inhibition in vivo at 1000 µmol/kg (Mus musculus [1]): 4%

Compound: CCCN1C(=O)CCN(S(=O)(=O)c2ccc(-n3nc(C)cc3C)cc2)C1=S
- inhibition in vivo at 1000 µmol/kg (Mus musculus [1]): 1%

Compound: CCCCN1C(=O)CCN(S(=O)(=O)c2ccc(-n3nc(C)cc3C)cc2)C1=S
- inhibition in vivo at 1000 µmol/kg (Mus musculus [1]): 1%

Compound: Cc1cc(C)n(-c2ccc(S(=O)(=O)N3CCC(=O)N(C4CCCCC4)C3=S)cc2)n1
- inhibition in vivo at 1000 µmol/kg (Mus musculus [1]): 4%

Compound: Cc1cc(C)n(-c2ccc(S(=O)(=O)N3CCC(=O)N(c4ccccc4)C3=S)cc2)n1
- inhibition in vivo at 1000 µmol/kg (Mus musculus [1]): < 1%

Compound: CCN1C(=O)CCN(S(=O)(=O)c2ccc(-n3nc(C(=O)O)cc3C)cc2)C1=S
- inhibition in vivo at 1000 µmol/kg (Mus musculus [1]): 1%

Compound: C=CCN1C(=O)CCN(S(=O)(=O)c2ccc(-n3nc(C(=O)O)cc3C)cc2)C1=S
- inhibition in vivo at 1000 µmol/kg (Mus musculus [1]): 0%

Compound: CCCN1C(=O)CCN(S(=O)(=O)c2ccc(-n3nc(C(=O)O)cc3C)cc2)C1=S
- inhibition in vivo at 1000 µmol/kg (Mus musculus [1]): < 1%

Compound: CCCCN1C(=O)CCN(S(=O)(=O)c2ccc(-n3nc(C(=O)O)cc3C)cc2)C1=S
- inhibition in vivo at 1000 µmol/kg (Mus musculus [1]): 2%

Compound: Cc1cc(C(=O)O)nn1-c1ccc(S(=O)(=O)N2CCC(=O)N(C3CCCCC3)C2=S)cc1
- inhibition in vivo at 1000 µmol/kg (Mus musculus [1]): 2%

Compound: Cc1cc(C(=O)O)nn1-c1ccc(S(=O)(=O)N2CCC(=O)N(Cc3ccccc3)C2=S)cc1
- inhibition in vivo at 1000 µmol/kg (Mus musculus [1]): 16%

Compound: Cc1cc(C(=O)O)nn1-c1ccc(S(=O)(=O)N2CCC(=O)N(c3ccccc3)C2=S)cc1
- inhibition in vivo at 1000 µmol/kg (Mus musculus [1]): 1%

Compound: C=CCN1C(=O)CN(S(=O)(=O)c2ccc(-n3nc(C)cc3C)cc2)C1=S
- inhibition in vivo at 1000 µmol/kg (Mus musculus [3]): 4%

Compound: N=C(N)NC(=N)NCCc1ccccc1 [PHENFORMIN]
- inhibition in vivo at 1000 µmol/kg (Mus musculus [1]): 21%
- inhibition in vivo at 1000 µmol/kg (Mus musculus [3]): 21%
